# Assay results reported in patent US20110190503A1, “Thiazolopyridin-2-yloxy-phenyl and thiazolopyrazin-2-yloxy-phenyl amines as modulators of leukotriene A4 hydrolase” (Janssen Pharmaceutical NV, priority 2008, published 2011).
# How the values were obtained:
# [1] = tested on: ex vivo stimulated LTB4 production; assay: Murine arachidonic acid-induced inflammation model: ex vivo stimulated LTB4 production (% Inh. LTB4); conditions: Mus musculus; female Balb/c mice, 30 mg/kg oral gavage; blood taken 3 h after arachidonic acid, ex vivo A23187 stimulation; number of determinations in parentheses
# Description: (§1) Assay 4: Murine Arachidonic Acid-Induced Inflammation Model
# (§2) LTA4H inhibitor compounds of the present invention were dissolved in 20% cyclodextran/H2O at a concentration of 3 mg/mL. The solutions were administered by oral gavage to female Balb/c mice weighing approximately 20 grams each (0.2 mL per mouse, 30 mg of LTA4H inhibitor compound per kg). Sixty minutes after being administered an LTA4 inhibitor, each mouse received topical application of 20 μL of arachidonic acid (100 mg/mL in acetone) to the left ear and 20 μL of acetone only to the right ear. After 3 h, the mice were sacrificed, blood was withdrawn in heparinized syringes, and 8 mm ear biopsies were taken. Ear biopsies were weighed to determine edema and then frozen at −80° C. until needed for determination of neutrophil influx.
# One hundred-microliter aliquots of heparinized blood were added to wells of a microtiter plate, along with equal volumes of RPMI-1640 medium, and calcium ionophore A23187 was added to each sample well (final concentration=[…]). The microtiter plate contents were incubated for 30 min at 37° C. in a humidified incubator. The reaction was terminated by centrifugation (833×g, 10 min at 4° C.). Supernatants were analyzed for LTB4 by a commercially available enzyme-linked immunoassay (Cayman Chemical Co.) in accordance with the manufacturer's instructions. The percent inhibition of ex vivo stimulated LTB4 production (% Inh. LTB4) was determined by comparison to animals treated identically except that the solution administered by oral gavage was devoid of inhibitor compound.
# (§3) The number of determinations is indicated in parentheses following each value
# neutrophil influx = assay: Murine arachidonic acid-induced inflammation model: neutrophil influx in ear, myeloperoxidase activity (% Inh. MPO); type: in vivo; conditions: Mus musculus, female Balb/c mice, 30 mg/kg oral gavage, ear biopsy 3 h after topical arachidonic acid, number of determinations in parentheses
# Description: as §1, §2
# Neutrophil influx was quantified by measuring the activity of myeloperoxidase (MPO), a neutrophil-specific enzyme. The ear biopsies were homogenized in 0.5 mL extraction buffer (0.3 M sucrose, 0.22% (w/v) hexadecyl trimethyl ammonium bromide (CTAB), and 2.5 mM citrate prepared from 0.5 M citrate stock solution (pH 5.0)), in a Fast-Prep-24 (MP™) (40 seconds at 6 mps). Debris was removed by centrifugation at 14000×g for 10 min. Aliquots of 10 μL of the resulting supernatant were added to wells of a microtiter plate, along with 90-μL aliquots of dilution buffer (10 mM citrate, 0.22% CTAB), followed by addition of 20 μL TMB liquid substrate system (Sigma Chemical Co.) to each sample well. The microtiter plate contents were held at room temperature until the sample with the highest concentration of MPO reached an absorbance value of 0.4 at 650 nm. The reaction was stopped by addition of 50 μL 1 M H2SO4 to each sample well, and the myeloperoxidase activity in each sample was determined from the absorbance at 405 nm. The background value from the right ear, treated only with acetone, was subtracted from that for the left ear, treated with arachidonic acid in acetone, for each animal. The percent inhibition of neutrophil influx (% Inh. MPO) by compounds of the invention was determined by comparison to animals treated identically, except that the solution administered by oral gavage was devoid of inhibitor compound.
# as §3
# [2] = tested on: LTB4 production by calcium ionophore-stimulated murine blood; assay: LTB4 production by calcium ionophore-stimulated murine blood for LTA4H inhibitor activity; type: cell-based, CD-1 mice; conditions: Mus musculus; murine blood diluted 1 in 15, calcium ionophore A23187, LTB4 by immunoassay; read-out: IC50
# Summary of the method: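 Heparinized CD-1 mouse blood pre-incubated with compound 15 min at 37° C, then stimulated with calcium ionophore A23187 (7 μg/mL final) for 30 min. LTB4 in supernatant measured by enzyme immunoassay; values are single or averaged determinations, with SD for n≥3.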
# [3] = molecular target: T1, recombinant human LTA4 hydrolase (rhLTA4H) (Homo sapiens, UniProt P09960); assay: Recombinant human LTA4 hydrolase assay for LTA4 hydrolase inhibitor activity; type: biochemical; conditions: rhLTA4H, LTA4 substrate, LTB4 by immunoassay; single determination or average; read-out: IC50
# T1 construct: made in house; host or cells: Spodoptera frugiperda (Sf-9) cells, recombinant baculovirus (pFastBac1)
# T1 sequence (P09960 1-611): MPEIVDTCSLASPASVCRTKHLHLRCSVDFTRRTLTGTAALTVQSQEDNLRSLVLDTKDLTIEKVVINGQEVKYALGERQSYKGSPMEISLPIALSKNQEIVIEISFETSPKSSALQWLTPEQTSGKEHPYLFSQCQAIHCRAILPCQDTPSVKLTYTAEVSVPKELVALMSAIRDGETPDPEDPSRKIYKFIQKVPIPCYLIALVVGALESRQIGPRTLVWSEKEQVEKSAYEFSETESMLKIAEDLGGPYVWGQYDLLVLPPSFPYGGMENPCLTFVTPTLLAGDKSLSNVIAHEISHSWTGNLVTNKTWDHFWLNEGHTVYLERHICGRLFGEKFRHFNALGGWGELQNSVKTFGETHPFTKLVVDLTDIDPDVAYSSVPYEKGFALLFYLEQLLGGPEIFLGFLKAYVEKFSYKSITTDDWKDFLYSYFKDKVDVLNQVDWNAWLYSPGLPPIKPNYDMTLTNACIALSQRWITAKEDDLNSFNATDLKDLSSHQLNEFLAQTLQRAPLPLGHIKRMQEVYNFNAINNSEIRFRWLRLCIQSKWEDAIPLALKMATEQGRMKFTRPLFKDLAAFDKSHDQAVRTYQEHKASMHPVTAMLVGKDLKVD
# Summary of the method: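 Recombinant human LTA4H from baculovirus-infected Sf-9 cells (10 ng) pre-incubated 10 min at rt with compound (10% DMSO in dilutions), then reacted with free-acid LTA4 for 30 min at rt. LTB4 measured by ELISA; IC50 by nonlinear regression. Values are single determinations or averages.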
IC50 [2] [nM],IC50 [3] [nM],Compound,inhibition at 30 mg/kg [1] [%],inhibition in vivo at 30 mg/kg (neutrophil influx) [%]
5,1.9,"CCN(CCO)CCc1ccc(Oc2nc3ncccc3s2)cc1 [Example 56, 2-(Ethyl{2-[4-([1,3]thiazolo[4,5-b]pyridin-2-yloxy)phenyl]ethyl}amino)ethanol]",71.2,81.6
155,66,"Cc1ccnc2nc(Oc3ccc(CN4CCC(C(N)=O)CC4)cc3)sc12 [Example 282, 1-{4-[(7-Methyl[1,3]thiazolo[4,5-b]pyridin-2-yl)oxy]benzyl}piperidine-4-carboxamide]",62.8,61.1
300,94,"NC(=O)C1CCN(Cc2ccc(Oc3nc4nccnc4s3)cc2)CC1 [Example 285, 1-[4-([1,3]Thiazolo[4,5-b]pyrazin-2-yloxy)benzyl]piperidine-4-carboxamide]",19.7,12.3
270,48,"CC(=O)N1C[C@@H]2C[C@H]1CN2Cc1ccc(Oc2nc3ncc(Cl)cc3s2)cc1 [Example 122, 2-(4-{[(1S,4S)-5-Acetyl-2,5-diazabicyclo[2.2.1]hept-2-yl]methyl}phenoxy)-6-chloro[1,3]thiazolo[4,5-b]pyridine]",72,66.9
97,29,"c1cnc2nc(Oc3ccc(CN4CCC(N5CCOCC5)CC4)cc3)sc2c1 [Example 257, 2-{4-[(4-Morpholin-4-ylpiperidin-1-yl)methyl]phenoxy}[1,3]thiazolo[4,5-b]pyridine]",86,70.5
8,2.4,"OC[C@@H]1CCCN1Cc1ccc(Oc2nc3ncccc3s2)cc1 [Example 108, {(2S)-1-[4-([1,3]Thiazolo[4,5-b]pyridin-2-yloxy)benzyl]pyrrolidin-2-yl}methanol]",79.8,71.4
10,3,"CC(=O)N1CC2CN(Cc3ccc(Oc4nc5ncccc5s4)cc3)CC2C1 (centres unmarked) [Example 276, 2-{4-[(5-Acetylhexahydropyrrolo[3,4-c]pyrrol-2(1H)-yl)methyl]phenoxy}[1,3]thiazolo[4,5-b]pyridine]",57.4,94.9
7.5,5,"CC(=O)N1C[C@@H]2C[C@H]1CN2Cc1ccc(Oc2nc3ncccc3s2)cc1 [Example 127, 1-{(1S,4S)-5-[4-([1,3]Thiazolo[4,5-b]pyridin-2-yloxy)benzyl]-2,5-diazabicyclo[2.2.1]hept-2-yl}ethanone]",91.5,87.6
150,110 ± 37,"CC(=O)N1C[C@@H]2C[C@H]1CN2Cc1ccc(Oc2nc3nccnc3s2)cc1 [Example 120, 2-(4-{[(1S,4S)-5-Acetyl-2,5-diazabicyclo[2.2.1]hept-2-yl]methyl}phenoxy)[1,3]thiazolo[4,5-b]pyrazine]",57.8,48.1
11,4,"c1cnc2nc(Oc3ccc(CCN4CCCC4)cc3)sc2c1 [Example 61, 2-[4-(2-Pyrrolidin-1-ylethyl)phenoxy][1,3]thiazolo[4,5-b]pyridine]",67.4,62.8
15,3,"c1cnc2nc(Oc3ccc(CCN4CCCCC4)cc3)sc2c1 [Example 60, 2-[4-(2-Piperidin-1-ylethyl)phenoxy][1,3]thiazolo[4,5-b]pyridine]",69.5,35.8
47,2,"CN(C)CCC1CCCCN1Cc1ccc(Oc2nc3ncccc3s2)cc1 (centres unmarked) [Example 258, N,N-Dimethyl-2-{1-[4-([1,3]thiazolo[4,5-b]pyridin-2-yloxy)benzyl]piperidin-2-yl}ethanamine]",75,13.8
110,7.2,"NC(=O)C1CCN(Cc2ccc(Oc3nc4ncccc4s3)cc2)CC1 [Example 100, 1-[4-([1,3]Thiazolo[4,5-b]pyridin-2-yloxy)benzyl]piperidine-4-carboxamide]",85.3,88.7

Compound,IC50 [2] [nM],IC50 [3] [nM],inhibition at 30 mg/kg [1] [%],inhibition in vivo at 30 mg/kg (neutrophil influx) [%]
CC(=O)N[C@H]1C[C@H]2CC[C@@H](C1)N2Cc1ccc(Oc2nc3ncc(F)cc3s2)cc1 [Example 288],104,15,61.7,94.6
"CC(=O)N[C@H]1C[C@H]2CC[C@@H](C1)N2CCc1ccc(Oc2nc3cccnc3s2)cc1 [Example 52, meso-N-[(3-endo)-8-{2-[4-([1,3]Thiazolo[5,4-b]pyridin-2-yloxy)phenyl]ethyl}-8-azabicyclo[3.2.1]oct-3-yl]acetamide]",13,1,78.3,60.2
"CC(=O)N[C@@H]1C[C@H]2CC[C@@H](C1)N2CCOc1ccc(Oc2nc3ncccc3s2)cc1 [Example 17, meso-N-[(3-exo)-8-{2-[4-([1,3]Thiazolo[4,5-b]pyridin-2-yloxy)phenoxy]ethyl}-8-azabicyclo[3.2.1]oct-3-yl]acetamide]",25,2,81.5,63.4
"CC(=O)N[C@H]1C[C@H]2CC[C@@H](C1)N2CCc1ccc(Oc2nc3ncccc3s2)cc1 [Example 76, meso-N-[(3-endo)-8-{2-[4-([1,3]Thiazolo[4,5-b]pyridin-2-yloxy)phenyl]ethyl}-8-azabicyclo[3.2.1]oct-3-yl]acetamide]",65,0.5,85.3,78.3
